{
  "source": "patent US11597728B2",
  "about": "“Monoacylglycerol lipase modulators” (Janssen Pharmaceutica NV, priority 2018, dated 2023)",
  "molecular_target": "human MGL from HeLa cells (Homo sapiens (Human), UniProt Q99685)",
  "sequence (Q99685 whole entry)": "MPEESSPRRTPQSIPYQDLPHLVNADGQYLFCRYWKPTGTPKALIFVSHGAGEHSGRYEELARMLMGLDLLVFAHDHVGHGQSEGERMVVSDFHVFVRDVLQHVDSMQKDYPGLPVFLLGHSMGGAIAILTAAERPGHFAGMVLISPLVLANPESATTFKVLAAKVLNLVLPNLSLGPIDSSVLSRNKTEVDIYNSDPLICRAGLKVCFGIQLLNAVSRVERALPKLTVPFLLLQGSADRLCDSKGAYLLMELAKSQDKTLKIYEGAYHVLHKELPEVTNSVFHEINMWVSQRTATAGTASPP",
  "assay": "In vitro MGL activity assay: cleavage of [glycerol-1,3-3H]-oleoyl glycerol, activated carbon filtration",
  "format": "biochemical",
  "data": [
    {"smiles": "Cn1nc2c(c1-c1ccc(F)c(F)c1)C[C@H]1CCC[C@@H]2N1C(=O)c1ccccc1-n1nccn1", "note": "[Example 126, (2-(2H-1,2,3-Triazol-2-yl)phenyl)((5R,9S)-3-(3,4-difluorophenyl)-2-methyl-4,5,6,7,8,9-hexahydro-2H-5,9-epiminocycloocta[c]pyrazol-10-yl)methanone]", "values": [
      {"measurement": "IC50", "value": 7.44, "unit": "nM"}
    ]}
  ]
}
